Where “and” joins values, the source holds several entries; their conditions need not be identical. Identical values can stand only once.
Key:
[1] = target: Recombinant human Src enzyme (Homo sapiens, UniProt P12931); experiment: Src kinase assay (LANCE homogeneous FRET); assay type: biochemical; conditions: 100 μM ATP, 70 min at 37° C.; multiple entries = tested multiple times
Method: Recombinant human Src enzyme was obtained from PanVera (P3044). […] Homogeneous fluorescence resonance energy transfer kinase assays were performed using the europium/APC detection format (LANCE, Perkin Elmer). Src enzyme (10 ng) was mixed with biotinylated peptide (final concentration 2 μM), 50 mM Hepes (pH 7.5), 10 mM MgCl2, 20 ug/ml BSA, 0.001% Brij-35 (Sigma), 100 μM ATP, 1% DMSO. The kinase reaction was incubated for 70 min at 37° C. The reaction was stopped with EDTA at a final concentration of 30 mM EDTA/25 mM Hepes (pH 7.5)/10 μg/ml BSA. The mixture was combined with Eu-labeled anti-phosphotyrosine antibody PT66 (Perkin Elmer, AD0068) and Streptavidin Surelight-APC (Perkin Elmer, CR130-100) in 50 mM Hepes (pH 7.5)/20 μg/ml BSA, and incubated for 30 min according to manufacturer's specifications. Fluorescence intensity at 665 nm was used to monitor the extent of the kinase reaction. Multiple entries for a given compound indicate that it was tested multiple times.

[2] = target: Rat2 fibroblasts stably transformed with v-Src/Hu c-Src fusion gene (Homo sapiens, UniProt P12931, cells depend on it, form not given); experiment: Anchorage independent Src-transformed fibroblast proliferation assay; assay type: cell-based, rat; conditions: suspension growth, MTS on Day 5; multiple entries = tested multiple times; read-out: Src cell IC50
Sequence of Rat2 fibroblasts stably transformed with v-Src/Hu c-Src fusion gene (P12931 whole entry, change not shown, the tested form may be a part): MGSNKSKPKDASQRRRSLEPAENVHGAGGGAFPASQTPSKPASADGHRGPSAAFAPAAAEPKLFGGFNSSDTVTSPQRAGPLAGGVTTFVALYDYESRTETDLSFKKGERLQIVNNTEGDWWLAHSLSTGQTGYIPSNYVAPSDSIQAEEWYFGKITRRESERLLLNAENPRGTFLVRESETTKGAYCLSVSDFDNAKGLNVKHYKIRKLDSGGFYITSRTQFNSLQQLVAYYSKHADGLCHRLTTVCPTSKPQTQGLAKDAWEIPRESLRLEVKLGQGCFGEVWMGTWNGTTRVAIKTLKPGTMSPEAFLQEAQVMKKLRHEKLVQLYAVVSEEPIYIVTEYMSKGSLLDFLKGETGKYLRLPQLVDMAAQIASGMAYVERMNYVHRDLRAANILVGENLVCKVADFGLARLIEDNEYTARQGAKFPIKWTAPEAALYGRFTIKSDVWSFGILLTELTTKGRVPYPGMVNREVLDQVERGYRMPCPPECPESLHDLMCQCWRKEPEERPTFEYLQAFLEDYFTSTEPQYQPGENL
Method: Anchorage Independent Src-transformed Fibroblast Proliferation Assay
Rat2 fibroblasts stably transformed with a plasmid containing a CMV promotor controlled v-Src/Hu c-Src fusion gene in which the catalytic domain of human c-Src was inserted in place of the v-Src catalytic domain in the v-Src gene are used for the measurement of src dependent suspension growth. Ultra-low cluster plates (Costar # 3474) are seeded with 10,000 cells per well on Day 1. Alternatively, Ultra-low cluster plates (Costar 3474) treated with Sigmacote (Sigma), rinsed with 70% ethanol, after drying in the hood, are seeded with 5000 cells.

[3] = tested on: rat model of transient focal ischemia; experiment: Rat model of transient focal ischemia (90 min MCA occlusion, reperfusion 48 hours); assay type: in vivo, Wistar rats; conditions: for reduction in infarct volume as a percent of control: 48 hours post MCA occlusion, statistical error 7-10%; for improved recovery from stroke-induced neurological deficits, as a percent of control: evaluated over 48 hours, statistical error 10-12%
Method: IV Administration of Example 2 Provides Neuroprotection in a Model of Transient Focal Ischemia
Example 2 was tested in a rat model of transient focal ischemia. Wistar rats were subjected to a 90 min occlusion of the middle cerebral artery (MCA) using an intraluminal suture approach as described by Longa et al., Stroke 1989, 20:84 followed by reperfusion for 48 hours. Four hours after the initial onset of ischemia, animals received compound of Example 2 as a single i.v. bolus in 5% dextrose, 0.9% lactic acid at pH 4.5-5.0 (3 mg/kg, 10 mg/kg or 30 mg/kg). Following reperfusion, the animals were evaluated over a 48 hour period for neurological function deficit. Infarct size was measured following sacrifice at 48 hours post MCA occlusion.

[4] = tested on: rat model of permanent occlusion of middle cerebral artery; experiment: Rat model of permanent occlusion of middle cerebral artery (permanent focal ischemia); assay type: in vivo
Method: IV Administration of Example 2 Provides Neuroprotection and Improves Long-Term Neurological Recovery in a Model of Permanent Focal Ischemia
Example 2 was tested in a rat model of permanent occlusion of middle cerebral artery, without the reperfusion, substantially as described by Chen et al., Stroke, 1986, 17:738. This is a more stringent model than the transient focal ischemia. Two hours following an electrocoagulation of middle cerebral artery, vehicle or Example 2 were administered at 10 mg/kg i.v followed by 3 additional doses of 10 mg/kg iv administered at 4, 24 and 26 hours post-induction of stroke. In one study, volume of infracted brain tissue was evaluated at 48 hour post-stroke. In a second study, animals were subjected to testing of sensori-motor function based on tactile and propioceptive limb placement substantially as described by DeRyck et al., Brain Res. 1992, 573:44 at three day intervals over a timecourse of three weeks following stroke. In the animals treated with Example 2 a statistically significant reduction by 24% of the infarct volume was found at 48 hours post-induction of stroke.

[5] = tested on: rat model of intracerebral hemorrhage; experiment: Rat model of intracerebral hemorrhage induced by intrastriatal infusion of collagenase; assay type: in vivo; conditions: measured 24 hours later
Method: IV Administration of Example 2 Provides Neuroprotection in the Model of Hemorrhagic Stroke
Example 2 was tested in a rat model of intracerebral hemorrhage induced by intrastriatal infusion of collagenase substantially as described by Rosenberg et al., Stroke, 1990, 20:801. In this model, infusion of collagenase into caudate nucleus leads to proteolytic destruction of collagen in basal lamina of blood vessels and induces intracranial bleeding and edema peaking in 24-48 hours. Example 2 was administered at 4 hours post-induction of hemorrhagic stroke as a single i.v injection at the doses of 10 mg/kg or 30 mg/kg. 24 hours later brain water content was determined as a measure of edema.

[6] = 10 mg/kg single i.v. bolus 4 hours after onset of ischemia
[7] = 30 mg/kg single i.v. bolus 4 hours after onset of ischemia

Sequence of Recombinant human Src enzyme (P12931 whole entry): as the sequence (P12931 whole entry, change not shown, the tested form may be a part) above

SMILES | IC50 [1] | GI50 [2] | reduction in infarct volume as a percent of control [3, 6] [%] | improved recovery from stroke-induced neurological deficits, as a percent of control [3, 6] [%] | reduction in infarct volume as a percent of control [3, 7] [%] | improved recovery from stroke-induced neurological deficits, as a percent of control [3, 7] [%] | reduction of the infarct volume ([4]; 10 mg/kg i.v. at 2, 4, 24 and 26 hours post-induction of stroke, 48 hours post-stroke) [%] | long-term sensorimotor recovery from neurological deficits (limb placement) ([4]; 10 mg/kg i.v. at 2, 4, 24 and 26 hours post-stroke, tested at three day intervals over three weeks) | reduction of post-hemorrhagic brain edema (brain water content) ([5]; 10 mg/kg single i.v. injection 4 hours post-induction) [%] | reduction of post-hemorrhagic brain edema (brain water content) ([5]; 30 mg/kg single i.v. injection 4 hours post-induction) [%]
CCOc1cc2c(Nc3cc(OC)c(Cl)cc3Cl)c(C#N)cnc2cc1C#CCCN1CCN(C)CC1 [Example 5, 4-[(2,4-Dichloro-5-methoxyphenyl)amino]-6-ethoxy-7-[4-(4-methylpiperazin-1-yl)but-1-ynyl]-3-quinolinecarbonitrile] | 6.5 nM and 2.8 nM | 96 nM and 183 nM and 154 nM and 103 nM |  |  |  |  |  |  |  | 
COc1cc(Nc2c(C#N)cnc3cc(C#CCCN4CCOCC4)c(OC)cc23)c(Cl)cc1Cl [Example 3, 4-[(2,4-Dichloro-5-methoxyphenyl)amino]-6-methoxy-7-(4-morpholin-4-ylbut-1-ynyl)-3-guinolinecarbonitrile] | 4 nM and 4.1 nM | 206 nM and 183 nM |  |  |  |  |  |  |  | 
COc1cc(Nc2c(C#N)cnc3cc(C#CCCN4CCNCC4)c(OC)cc23)c(Cl)cc1Cl [Example 4, 4-[(2,4-Dichloro-5-methoxyphenyl)amino]-6-methoxy-7-(4-Piperazin-1-ylbut-1-ynyl)-3-quinolinecarbonitrile] | 5.9 nM and 4.8 nM | 435 nM and 605 nM |  |  |  |  |  |  |  | 
COc1cc(Nc2c(C#N)cnc3cc(C#CCCN(C)C)c(OC)cc23)c(Cl)cc1Cl [Example 1, 4-[(2,4-Dichloro-5-methoxyphenyl)amino]-7-[4-(dimethylamino)but-1-ynyl]-6-methoxy-3-guinolinecarbonitrile] | 5 nM and 4.7 nM | 252 nM and 240 nM |  |  |  |  |  |  |  | 
COc1cc(Nc2c(C#N)cnc3cc(C#CCCN4CCN(C)CC4)c(OC)cc23)c(Cl)cc1Cl [Example 2, 4-[(2,4-Dichloro-5-methoxyphenyl)amino]-6-methoxy-7-[4-(4-methylpiperazin-1-yl)but-1-ynyl]-3-guinolinecarbonitrile] | 3.5 nM and 4.2 nM | 71 nM and 70 nM and 77 nM | 32 | 35 | 40 | 53 | 24 | significantly improved long-term sensorimotor recovery | 18 | 24
